We go through one sequence from patent publication US20090170762A1, “Treatment of Diabetes Related Obesity” (UUTech Limited, priority 2005, published 2009).

Test [1] deals with adult ob/ob mice. Particulars: daily 11 days (Gault 2005); cited from earlier work.
For test [2], the target named is T1, human GIP-R (Homo sapiens, UniProt P48546).
T1 construct: expressed in transfected cells; host or cells: Chinese Hamster Lung (CHL) fibroblast cells, stably transfected
T1 sequence (P48546 22-466): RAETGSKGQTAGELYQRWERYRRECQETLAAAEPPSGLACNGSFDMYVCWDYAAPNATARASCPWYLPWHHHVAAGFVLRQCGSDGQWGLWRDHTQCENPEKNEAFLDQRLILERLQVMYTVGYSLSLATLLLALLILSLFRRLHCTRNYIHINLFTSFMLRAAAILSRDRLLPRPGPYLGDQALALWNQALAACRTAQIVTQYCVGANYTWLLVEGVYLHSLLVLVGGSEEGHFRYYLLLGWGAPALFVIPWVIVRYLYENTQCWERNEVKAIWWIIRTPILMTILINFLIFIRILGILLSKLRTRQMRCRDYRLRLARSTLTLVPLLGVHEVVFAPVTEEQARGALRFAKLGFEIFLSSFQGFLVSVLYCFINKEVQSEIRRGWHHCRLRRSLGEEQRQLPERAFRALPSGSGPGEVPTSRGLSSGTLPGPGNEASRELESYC
The test is described as follows: Cyclic AMP production in GIP-R transfected CHL cells. The class given is cell-based. In a few lines:
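Cells washed in ice-cold HBS buffer (5.6 mm glucose, pH 7.4), then lysed in TCA/SDS solution with unlabelled cAMP and ATP. Tritiated cAMP formation measured by Dowex and alumina ion-exchange column chromatography.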

Ends that are not written are not given here.

As for “YAPGTFISDYSIAMDKIHQQDFVNWLLAQKGKKNDWKHNITQ [(Pro^3)GIP]”, in test [1], the “features of type 2 diabetes” value is reported as “improved many of the characteristic features of type 2 diabetes”. In test [2], this sequence showed an EC50 of 207 nM. Besides, the remaining activity at 0.1 µM in test [2] (CHL, read-out: cAMP response in presence of 10^-7 M GIP (% GIP max)) was 66 ± 7%. Further, in test [2] (in presence of GIP (10^-7 m)), the “inhibition of GIP-stimulated cAMP production” value is “significantly inhibited”.
